# Measurements reported in patent US10815230B2, “Casein kinase 1 delta inhibitor” (ELECTROPHORETICS LIMITED, priority 2015, dated 2020).
# What was measured:
# Assay in all cases: KINOMEscan binding assay
# Details in all cases: read-out: % Ctrl @ 10000 nM
# [1] = target: ABL1 (F317I) non-phosphorylated (Homo sapiens, UniProt P00519, F317I)
# [2] = target: ABL1 (H396P) phosphorylated (Homo sapiens, UniProt P00519, H396P)
# AKT1 = AKT1 (Homo sapiens, UniProt P31749)
# AKT2 = AKT2 (Homo sapiens, UniProt P31751)
# BMPR2 = BMPR2 (Homo sapiens, UniProt Q13873)
# BRK = BRK (Homo sapiens, UniProt Q13882)
# CAMK2B = CAMK2B (Homo sapiens, UniProt Q13554)
# CDC2L2 = CDC2L2 (Homo sapiens, UniProt Q9UQ88)
# CDKL3 = CDKL3 (Homo sapiens, UniProt Q8IVW4)
# CSNK2A1 = CSNK2A1 (Homo sapiens, UniProt P68400)
# CTK = CTK (Homo sapiens, UniProt P42679)
# EPHA1 = EPHA1 (Homo sapiens, UniProt P21709)
# EPHB1 = EPHB1 (Homo sapiens, UniProt P54762)
# ERBB2 = ERBB2 (Homo sapiens, UniProt P04626)
# [3] = target: JAK3 (JH1domain-catalytic) (Homo sapiens, UniProt P52333)
# JNK2 = JNK2 (Homo sapiens, UniProt P45984)
# LYN = LYN (Homo sapiens, UniProt P07948)
# MAK = MAK (Homo sapiens, UniProt P20794)
# MAP3K3 = MAP3K3 (Homo sapiens, UniProt Q99759)
# MAPKAPK2 = target: T1, MAPKAPK2 (Homo sapiens, UniProt P49137)
# T1 construct: T7 phage fusion (most assays) or DNA label after HEK293 expression; purchased DiscoveRx (KINOMEscan, LeadHunter Discovery services); host or cells: T7 phage in E. coli (BL21-derived) or HEK293
# MARK1 = MARK1 (Homo sapiens, UniProt Q9P0L2)
# MKK7 = MKK7 (Homo sapiens, UniProt O14733)
# MLCK = MLCK (Homo sapiens, UniProt Q32MK0)
# NEK1 = NEK1 (Homo sapiens, UniProt Q96PY6)
# NEK5 = NEK5 (Homo sapiens, UniProt Q6P3R8)
# p38-alpha = p38-alpha (Homo sapiens, UniProt Q16539)
# PAK2 = PAK2 (Homo sapiens, UniProt Q13177)
# PIK3CA (C420R) = PIK3CA (C420R) (Homo sapiens, UniProt P42336, C420R)
# PIK3CA (E542K) = PIK3CA (E542K) (Homo sapiens, UniProt P42336, E542K)
# PIM1 = PIM1 (Homo sapiens, UniProt P11309)
# PKAC-beta = PKAC-beta (Homo sapiens, UniProt P22694)
# RAF1 = RAF1 (Homo sapiens, UniProt P04049)
# RET (V804L) = RET (V804L) (Homo sapiens, UniProt P07949, V804L)
# [4] = target: RPS6KA4 Kin.Dom.1-N-terminal (Homo sapiens, UniProt O75676)
# [5] = target: RPS6KA5 Kin.Dom.1-N-terminal (Homo sapiens, UniProt O75582)
# [6] = target: RSK4 Kin.Dom.1-N-terminal (Homo sapiens, UniProt Q9UK32)
# SNRK = SNRK (Homo sapiens, UniProt Q9NRH2)
# TNNI3K = TNNI3K (Homo sapiens, UniProt Q59H18)
# WNK1 = target: T2, WNK1 (Homo sapiens, UniProt Q9H4A3)
# T2 construct: purchased DiscoveRx (KINOMEscan, LeadHunter Discovery services)
# YANK1 = target: T3, YANK1 (Homo sapiens, UniProt Q8WU08)
# T3 construct: purchased DiscoveRx (KINOMEscan, LeadHunter Discovery services)
# Chain of SNRK (Q9NRH2 whole entry): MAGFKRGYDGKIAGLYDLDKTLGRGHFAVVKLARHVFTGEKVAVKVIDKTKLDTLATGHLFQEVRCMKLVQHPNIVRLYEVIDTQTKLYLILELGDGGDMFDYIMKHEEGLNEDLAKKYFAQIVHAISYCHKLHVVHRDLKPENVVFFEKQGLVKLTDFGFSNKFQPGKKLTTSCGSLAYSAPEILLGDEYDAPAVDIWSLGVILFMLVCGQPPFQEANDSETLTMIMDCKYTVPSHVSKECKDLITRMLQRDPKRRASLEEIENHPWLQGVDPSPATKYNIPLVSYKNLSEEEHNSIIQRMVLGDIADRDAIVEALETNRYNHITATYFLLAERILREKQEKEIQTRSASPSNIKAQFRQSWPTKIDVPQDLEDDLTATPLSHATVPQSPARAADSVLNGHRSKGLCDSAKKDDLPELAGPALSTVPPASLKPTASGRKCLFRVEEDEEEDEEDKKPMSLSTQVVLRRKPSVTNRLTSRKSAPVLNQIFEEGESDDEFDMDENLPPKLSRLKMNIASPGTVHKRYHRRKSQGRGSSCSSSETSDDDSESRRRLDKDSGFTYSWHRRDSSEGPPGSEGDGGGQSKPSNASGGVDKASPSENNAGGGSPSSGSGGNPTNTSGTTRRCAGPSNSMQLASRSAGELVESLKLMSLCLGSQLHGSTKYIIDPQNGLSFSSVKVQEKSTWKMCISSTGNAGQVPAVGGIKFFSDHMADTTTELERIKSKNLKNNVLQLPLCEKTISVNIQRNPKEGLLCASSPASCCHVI
# Chain of CAMK2B (Q13554 whole entry): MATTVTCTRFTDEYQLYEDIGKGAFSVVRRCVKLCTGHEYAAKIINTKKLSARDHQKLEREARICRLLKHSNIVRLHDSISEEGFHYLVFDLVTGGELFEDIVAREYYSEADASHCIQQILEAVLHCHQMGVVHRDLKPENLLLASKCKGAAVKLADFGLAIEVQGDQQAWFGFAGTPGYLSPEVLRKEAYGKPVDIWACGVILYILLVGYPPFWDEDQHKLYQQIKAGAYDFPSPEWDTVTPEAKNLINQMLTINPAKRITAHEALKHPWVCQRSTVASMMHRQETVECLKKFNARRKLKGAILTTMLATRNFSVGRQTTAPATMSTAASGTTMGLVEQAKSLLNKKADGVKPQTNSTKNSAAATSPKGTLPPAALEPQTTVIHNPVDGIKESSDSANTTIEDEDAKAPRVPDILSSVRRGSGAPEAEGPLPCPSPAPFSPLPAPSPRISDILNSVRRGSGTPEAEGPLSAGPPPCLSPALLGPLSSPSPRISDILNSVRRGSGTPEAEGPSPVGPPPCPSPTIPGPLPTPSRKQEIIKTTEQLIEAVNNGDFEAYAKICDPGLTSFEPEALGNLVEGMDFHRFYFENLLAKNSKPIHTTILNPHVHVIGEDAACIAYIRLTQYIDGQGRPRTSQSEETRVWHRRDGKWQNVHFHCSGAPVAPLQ
# Chain of EPHA1 (P21709 26-976): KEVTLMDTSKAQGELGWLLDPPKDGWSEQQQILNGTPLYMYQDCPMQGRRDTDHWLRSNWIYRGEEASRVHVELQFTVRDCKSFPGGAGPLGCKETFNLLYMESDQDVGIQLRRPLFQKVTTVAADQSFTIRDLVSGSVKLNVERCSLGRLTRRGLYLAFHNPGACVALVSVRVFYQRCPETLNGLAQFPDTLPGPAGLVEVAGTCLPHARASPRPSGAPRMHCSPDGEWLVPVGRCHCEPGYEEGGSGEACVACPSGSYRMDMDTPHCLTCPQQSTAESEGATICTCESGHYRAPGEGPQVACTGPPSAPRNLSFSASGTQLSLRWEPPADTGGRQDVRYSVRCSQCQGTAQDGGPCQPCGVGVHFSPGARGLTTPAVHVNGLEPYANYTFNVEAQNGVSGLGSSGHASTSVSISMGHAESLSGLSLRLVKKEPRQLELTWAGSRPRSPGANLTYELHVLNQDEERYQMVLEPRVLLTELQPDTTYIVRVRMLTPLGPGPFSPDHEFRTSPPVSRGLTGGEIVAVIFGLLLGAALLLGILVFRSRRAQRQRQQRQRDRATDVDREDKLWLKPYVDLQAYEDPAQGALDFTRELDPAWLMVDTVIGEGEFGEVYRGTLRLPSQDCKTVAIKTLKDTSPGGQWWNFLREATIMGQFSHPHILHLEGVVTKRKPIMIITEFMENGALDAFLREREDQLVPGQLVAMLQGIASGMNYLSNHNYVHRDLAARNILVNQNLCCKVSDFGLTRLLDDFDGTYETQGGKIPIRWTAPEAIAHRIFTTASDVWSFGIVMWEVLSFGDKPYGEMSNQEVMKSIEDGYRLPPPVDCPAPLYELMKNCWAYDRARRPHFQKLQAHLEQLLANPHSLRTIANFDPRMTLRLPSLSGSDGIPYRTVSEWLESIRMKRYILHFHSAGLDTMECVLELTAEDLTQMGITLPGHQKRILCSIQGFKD
# Chain of RPS6KA4 Kin.Dom.1-N-terminal (O75676 33-301 limits assumed): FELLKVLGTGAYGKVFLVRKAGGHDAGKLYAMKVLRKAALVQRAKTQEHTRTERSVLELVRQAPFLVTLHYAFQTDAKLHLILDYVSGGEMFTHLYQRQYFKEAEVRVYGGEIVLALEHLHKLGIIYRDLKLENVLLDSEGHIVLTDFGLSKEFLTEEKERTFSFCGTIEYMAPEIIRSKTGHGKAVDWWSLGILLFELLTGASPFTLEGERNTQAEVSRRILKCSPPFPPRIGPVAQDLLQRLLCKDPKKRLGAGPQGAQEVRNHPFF
# Chain of NEK5 (Q6P3R8 whole entry): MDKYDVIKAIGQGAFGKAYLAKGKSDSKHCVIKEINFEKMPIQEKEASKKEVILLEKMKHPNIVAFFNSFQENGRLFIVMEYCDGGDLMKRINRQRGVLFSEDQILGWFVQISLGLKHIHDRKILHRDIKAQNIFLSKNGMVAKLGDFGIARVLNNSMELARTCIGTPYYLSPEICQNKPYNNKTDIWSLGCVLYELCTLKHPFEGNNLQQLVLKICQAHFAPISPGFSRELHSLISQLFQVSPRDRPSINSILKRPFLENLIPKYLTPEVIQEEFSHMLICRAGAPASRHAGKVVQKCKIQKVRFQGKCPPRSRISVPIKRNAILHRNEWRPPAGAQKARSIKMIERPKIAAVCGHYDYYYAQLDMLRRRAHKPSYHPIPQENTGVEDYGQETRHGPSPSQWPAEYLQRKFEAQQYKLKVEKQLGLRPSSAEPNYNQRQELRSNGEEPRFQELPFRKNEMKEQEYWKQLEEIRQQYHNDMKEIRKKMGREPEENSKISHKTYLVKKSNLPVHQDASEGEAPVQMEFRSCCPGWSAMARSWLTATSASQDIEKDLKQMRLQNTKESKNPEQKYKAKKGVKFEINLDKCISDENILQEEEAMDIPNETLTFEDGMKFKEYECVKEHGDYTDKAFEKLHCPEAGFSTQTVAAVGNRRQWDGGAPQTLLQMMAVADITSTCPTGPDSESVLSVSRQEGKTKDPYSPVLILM
# Chain of MAP3K3 (Q99759 whole entry): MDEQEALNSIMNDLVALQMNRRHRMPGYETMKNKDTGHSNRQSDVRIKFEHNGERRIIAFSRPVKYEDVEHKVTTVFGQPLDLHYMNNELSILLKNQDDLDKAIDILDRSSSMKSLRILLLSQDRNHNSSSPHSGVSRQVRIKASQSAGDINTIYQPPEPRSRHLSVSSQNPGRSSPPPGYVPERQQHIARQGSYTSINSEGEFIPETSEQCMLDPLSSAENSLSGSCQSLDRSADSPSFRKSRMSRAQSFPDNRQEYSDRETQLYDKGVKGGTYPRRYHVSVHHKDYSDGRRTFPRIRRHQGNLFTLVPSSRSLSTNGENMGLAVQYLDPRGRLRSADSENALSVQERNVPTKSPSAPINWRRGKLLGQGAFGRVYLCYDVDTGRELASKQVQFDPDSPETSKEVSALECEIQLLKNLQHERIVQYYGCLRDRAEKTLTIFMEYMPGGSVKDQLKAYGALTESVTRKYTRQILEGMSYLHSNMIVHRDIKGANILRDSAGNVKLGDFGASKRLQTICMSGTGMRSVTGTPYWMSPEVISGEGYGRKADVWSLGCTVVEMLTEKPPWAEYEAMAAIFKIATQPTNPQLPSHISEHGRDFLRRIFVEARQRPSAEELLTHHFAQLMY
# Chain of PAK2 (Q13177 whole entry): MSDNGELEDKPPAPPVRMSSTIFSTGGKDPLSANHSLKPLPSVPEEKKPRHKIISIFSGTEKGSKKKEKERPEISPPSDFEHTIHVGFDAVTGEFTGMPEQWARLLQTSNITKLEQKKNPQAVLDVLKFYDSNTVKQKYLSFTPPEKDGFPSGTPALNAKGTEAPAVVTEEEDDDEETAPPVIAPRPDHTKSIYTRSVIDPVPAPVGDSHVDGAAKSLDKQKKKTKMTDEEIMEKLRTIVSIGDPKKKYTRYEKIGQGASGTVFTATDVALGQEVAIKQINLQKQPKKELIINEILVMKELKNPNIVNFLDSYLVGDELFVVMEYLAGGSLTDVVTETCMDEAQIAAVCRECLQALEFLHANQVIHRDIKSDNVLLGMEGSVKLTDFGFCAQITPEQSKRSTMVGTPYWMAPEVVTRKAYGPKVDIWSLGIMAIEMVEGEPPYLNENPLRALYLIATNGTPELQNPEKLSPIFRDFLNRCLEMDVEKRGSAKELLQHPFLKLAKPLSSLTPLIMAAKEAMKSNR
# T1 sequence (P49137 whole entry, the tested form may be a part): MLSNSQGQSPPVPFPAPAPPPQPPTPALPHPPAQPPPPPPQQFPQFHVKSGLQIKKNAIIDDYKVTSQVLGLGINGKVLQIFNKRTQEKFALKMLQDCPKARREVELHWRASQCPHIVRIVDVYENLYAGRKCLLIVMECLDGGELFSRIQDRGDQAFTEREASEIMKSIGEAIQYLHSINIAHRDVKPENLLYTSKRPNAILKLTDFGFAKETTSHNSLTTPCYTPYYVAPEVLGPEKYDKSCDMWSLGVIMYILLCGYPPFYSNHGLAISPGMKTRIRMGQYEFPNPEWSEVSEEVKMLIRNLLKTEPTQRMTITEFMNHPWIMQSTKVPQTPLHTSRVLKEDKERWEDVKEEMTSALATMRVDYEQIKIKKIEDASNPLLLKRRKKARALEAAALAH
Structure (SMILES),remaining binding at 10 µM [1] [%],remaining binding at 10 µM [2] [%],remaining binding at 10 µM (AKT1) [%],remaining binding at 10 µM (AKT2) [%],remaining binding at 10 µM (BMPR2) [%],remaining binding at 10 µM (BRK) [%],remaining binding at 10 µM (CAMK2B) [%],remaining binding at 10 µM (CDC2L2) [%],remaining binding at 10 µM (CDKL3) [%],remaining binding at 10 µM (CSNK2A1) [%],remaining binding at 10 µM (CTK) [%],remaining binding at 10 µM (EPHA1) [%],remaining binding at 10 µM (EPHB1) [%],remaining binding at 10 µM (ERBB2) [%],remaining binding at 10 µM [3] [%],remaining binding at 10 µM (JNK2) [%],remaining binding at 10 µM (LYN) [%],remaining binding at 10 µM (MAK) [%],remaining binding at 10 µM (MAP3K3) [%],remaining binding at 10 µM (MAPKAPK2) [%],also measured
"Nc1ncc(-c2nc3ccccc3o2)c(-c2ccncc2)n1 [Comparative Compound 324, 5-(1,3-benzoxazol-2-yl)-4-(pyridine-4-yl)pyrimidin-2-amine]",90,98,96,100,100,99,100,100,100,56,100,83,86,99,74,18,99,86,76,100,remaining binding at 10 µM (MARK1): 100%; remaining binding at 10 µM (MKK7): 100%; remaining binding at 10 µM (MLCK): 94%; remaining binding at 10 µM (NEK1): 100%; remaining binding at 10 µM (NEK5): 100%; remaining binding at 10 µM (p38-alpha): 33%; remaining binding at 10 µM (PAK2): 92%; remaining binding at 10 µM (PIK3CA (C420R)): 99%; remaining binding at 10 µM (PIK3CA (E542K)): 98%; remaining binding at 10 µM (PIM1): 98%; remaining binding at 10 µM (PKAC-beta): 95%; remaining binding at 10 µM (RAF1): 100%; remaining binding at 10 µM (RET (V804L)): 86%; remaining binding at 10 µM [4]: 100%; remaining binding at 10 µM [5]: 95%; remaining binding at 10 µM [6]: 85%; remaining binding at 10 µM (SNRK): 65%; remaining binding at 10 µM (TNNI3K): 100%; remaining binding at 10 µM (WNK1): 81%; remaining binding at 10 µM (YANK1): 66%
"CNc1c(C(N)=O)c2ccccn2c1C(=O)c1ccc(F)cc1 [Compound A, 2-methyl-amino-3-[(4-fluorophenyl)carbonyl]indolizine-1-carboxamide]",85,49,91,98,88,92,62,91,93,53,100,72,69,49,100,45,54,59,48,100,remaining binding at 10 µM (MARK1): 99%; remaining binding at 10 µM (MKK7): 100%; remaining binding at 10 µM (MLCK): 53%; remaining binding at 10 µM (NEK1): 95%; remaining binding at 10 µM (NEK5): 91%; remaining binding at 10 µM (p38-alpha): 6%; remaining binding at 10 µM (PAK2): 79%; remaining binding at 10 µM (PIK3CA (C420R)): 94%; remaining binding at 10 µM (PIK3CA (E542K)): 90%; remaining binding at 10 µM (PIM1): 92%; remaining binding at 10 µM (PKAC-beta): 63%; remaining binding at 10 µM (RAF1): 95%; remaining binding at 10 µM (RET (V804L)): 67%; remaining binding at 10 µM [4]: 100%; remaining binding at 10 µM [5]: 96%; remaining binding at 10 µM [6]: 64%; remaining binding at 10 µM (SNRK): 66%; remaining binding at 10 µM (TNNI3K): 78%; remaining binding at 10 µM (WNK1): 69%; remaining binding at 10 µM (YANK1): 81%
